In brackets after ≈: the same amount, converted by molar mass. Entries after “also recorded” stand apart in the source; their conditions may differ. Marks after values point to notes of the source that are not given here. Each block holds one molecule with its values, some of them ahead of it.
How the values were obtained:
W. anomalus DSM 6766 = test: MIC against fungi (antimicrobial assay); assay type: cell-based, Wickerhamomyces anomalus; details: – = no activity observed under test conditions
Description: (§1) The antimicrobial activities of compounds 1–7 (Acp A–G) were assessed against different bacterial and fungal strains in addition to their cytotoxic effects on two mammalian cell lines. The tested microorganisms comprised a diverse array of clinically relevant pathogens, encompassing sensitive indicator strains. Among the Gram-positive bacteria were Bacillus subtilis, Staphylococcus aureus, and Mycolicibacterium smegmatis. Gram-negative bacteria included Acinetobacter baumannii, Chromobacterium violaceum, Escherichia coli, and Pseudomonas aeruginosa. Additionally, filamentous fungi such as Mucor hiemalis and yeasts including Candida albicans, Wickerhamomyces anomalus, Rhodotorula glutinis, and Schizosaccharomyces pombe were included. Generally, all compounds presented similar biological properties, summarized in weak or no activity against fungal pathogens as well as weak to moderate inhibition of Gram-positive bacteria (Table 2).
(§2) The antimicrobial and cytotoxic assays were performed according to the methods reported previously.[57]

M. hiemalis DSM 2656 = test: MIC against fungi (antimicrobial assay); assay type: cell-based, Mucor hiemalis
Description: as §1, §2

C. albicans DSM 1665 = test: MIC against fungi (antimicrobial assay); assay type: cell-based, Candida albicans
Description: as §1, §2

S. pombe DSM 70572 = test: MIC against fungi (antimicrobial assay); assay type: cell-based, Schizosaccharomyces pombe
Description: as §1, §2

R. glutinis DSM 10134 = test: MIC against fungi (antimicrobial assay); assay type: cell-based, Rhodotorula glutinis; details: – = no activity observed under test conditions
Description: as §1, §2

[1] = system: planktonic cells of S. aureus DSM 1104; test: Checkerboard broth dilution assay (FICI); assay type: cell-based, Staphylococcus aureus; details: for MIC: Staphylococcus aureus, DSM1104, compound alone, read-out: MIC of each single compound (MICs)
From the text: After assessing the effects of Acp A on the pathogen S. aureus, we delved deeper into the interaction of Acp A with established antibiotics (GM and Vac). This exploration focused on both planktonic cells and preformed biofilms of S. aureus. Consequently, we used a checkerboard assay to determine the fractional inhibitory concentration index (FICI) for combinations involving Acp A, GM, or Vac based on both their MIC values in combination.[49]
The interaction between arcopilin A, vancomycin, and gentamicin against S. aureus DSM 1104 was evaluated using a checkerboard broth dilution method to determine the fractional inhibitory concentration indices (FICIs), calculated as FIC = MIC of drug A in combination/MIC of drug A alone + MIC of drug B in combination/MIC of drug B alone.[59] The FICIs were interpreted as synergistic (FICI ≤ 0.5). For this assay, a seed culture was prepared as previously described to inoculate fresh CASO with 4% glucose broth to match the turbidity of a 0.1 McFarland standard suspension. Then, 100 μL of bacterial suspension was distributed in 96-well nontissue microtiter plates (TPP nontissue culture ref no. 92197, Switzerland). Arcopilin A (7.8–2 μg/mL) and antibiotics (vancomycin and gentamicin: 31.3–0.016 μg/mL) were added in increasing concentrations in columns and rows, respectively. The experiments were conducted in duplicate.

[2] = system: preformed biofilms of S. aureus DSM 1104; test: CFU count analysis, synergistic effects on preformed biofilms; assay type: cell-based, Staphylococcus aureus; details: Acp A 7.8–3.9 μg/mL, GM 7.8–2 μg/mL, Vac 15.6–3.9 μg/mL
Description: The seed culture of S. aureus DSM 1104 was prepared as previously described, and the OD600 was adjusted to match the turbidity of a 0.001 McFarland standard. Then, 150 μL of bacterial solution in CASO with 4% glucose broth was incubated in 96-well tissue plates (TPP tissue culture ref no. 92196, Switzerland) for 24 h at 150 rpm. […] Methanol (2.5%) was used as the solvent control. The plates were incubated for a further 24 h at 37 °C. Colony-forming unit (CFU) count analysis of arcopilin A, antibiotics (vancomycin and gentamicin), and their combinations was performed as previously described.[58] Cells were suspended in the well 50 times. Dilution series in 1 to 10 steps (20 μL in 200 μL) were prepared down to a final dilution level of 10^–6, and 100 μL of this last dilution was platted on LB agar plates using 3 mm small glass beads (5 to 10, Omnilab, Germany) to homogeneously spread the liquid. Individual colonies on agar plates were counted after incubation at 30 °C for 24 and 48 h.[60] Afterward, CFUs were calculated by considering the dilution factors. Error bars indicate the SD of duplicate with two repeats.

C. violaceum DSM 30191 = test: MIC against bacteria (antimicrobial assay); assay type: cell-based; details: Chromobacterium violaceum, DSM30191, – = no activity observed under test conditions
Description: as §1, §2

E. coli DSM 1116 = test: MIC against bacteria (antimicrobial assay); assay type: cell-based; details: Escherichia coli, DSM1116, – = no activity observed under test conditions
Description: as §1, §2

S. aureus DSM 346 = test: MIC against bacteria (antimicrobial assay); assay type: cell-based, Staphylococcus aureus; details: for MIC: Staphylococcus aureus, DSM346, DSM 346, – = no activity observed under test conditions
Description: as §1, §2

[3] = system: preformed biofilm cells of S. aureus DSM 1104; test: XTT assay, metabolic activity in preformed biofilm cells; assay type: cell-based, Staphylococcus aureus; details: 24 h treatment
Description: The seed culture of S. aureus DSM 1104 was prepared as previously described, and its OD600 was adjusted to match the turbidity of a 0.001 McFarland standard. Next, 150 μL of this bacterial solution in CASO with 4% glucose broth was incubated in 96-well tissue plates (TPP tissue culture ref no. 92196, Switzerland) for 24 h at 150 rpm. After incubation, the supernatant was discarded and 150 μL of the fresh media was added to the wells, along with serially diluted arcopilin A (31.3–0.5 μg/mL). The plate was further incubated for 24 h. Afterward, XTT (Cell profile XTT kit, Roche, Switzerland) was prepared in phosphate-buffered saline (PBS) at a final concentration of 0.3 mg/mL. The plate was washed three times with PBS buffer, and then, 150 μL of the prepared XTT solution was added to each well. Plates were further incubated for an additional 4 h at 37 °C while shaking (150 rpm), and absorbance was measured at 490 nm using a plate reader (Synergy 2, BioTek, Santa Clara). Methanol (2.5%) was used as the solvent control. Error bars indicate the standard deviation (SD) of duplicate with two repeats.

B. subtilis DSM 10 = test: MIC against bacteria (antimicrobial assay); assay type: cell-based, Bacillus subtilis
Description: as §1, §2

[4] = system: preformed biofilms of S. aureus DSM 1104; test: Disruption of preformed biofilms, crystal violet assay; assay type: cell-based, Staphylococcus aureus
Description: Therefore, Acp A–G were evaluated against preformed biofilms of S. aureus using crystal violet staining.[47]
Cultures of S. aureus DSM 1104 were prepared by inoculating 1 mL aliquots from a frozen stock (−20 °C) into 25 mL of CASO medium and incubating them overnight at 37 °C with shaking at 130 rpm.
The crystal violet assay was performed according to a previously reported procedure.[47] Arcopilins A–G were tested in serial dilutions (250–2 μg/mL), with methanol and microporenic acid A (MAA) as negative and positive controls, respectively. Statistical differences between samples and the controls were determined using a two-tailed Student’s t test, with statistical significance defined as p < 0.01. Statistical analysis was carried out using GraphPad Prism 9 (GraphPad Software, San Diego, CA).[58]

S. aureus DSM 1104 = test: MIC against bacteria (antimicrobial assay); assay type: cell-based, Staphylococcus aureus
From the text: The tested microorganisms comprised a diverse array of clinically relevant pathogens, encompassing sensitive indicator strains. Among the Gram-positive bacteria were Bacillus subtilis, Staphylococcus aureus, and Mycolicibacterium smegmatis. Gram-negative bacteria included Acinetobacter baumannii, Chromobacterium violaceum, Escherichia coli, and Pseudomonas aeruginosa. Additionally, filamentous fungi such as Mucor hiemalis and yeasts including Candida albicans, Wickerhamomyces anomalus, Rhodotorula glutinis, and Schizosaccharomyces pombe were included.
as §2

L929 (ACC 2) = test: Cytotoxicity against mammalian cell lines; assay type: cell-based; details: Mus musculus, L929; ACC 2; – = no activity observed under test conditions; read-out: IC50 against mammalian cell lines, L929
Description: as §1, §2

KB-3-1 (ACC 158) = test: Cytotoxicity against mammalian cell lines; assay type: cell-based; details: Homo sapiens, KB 3-1; ACC 158; – = no activity observed under test conditions; read-out: IC50 against mammalian cell lines, KB-3-1
Description: as §1, §2

[5] = supplement CSV, decimal comma, unit not given, in µg/mL

SMILES: C[C@@H]1[C@H](O)[C@@H](C)/C=C/C=C/CC/C=C/C=C/C=C/C=C/C(O[C@H]2O[C@H](C)[C@@H](O)[C@H](N)[C@@H]2O)CC2O[C@](O)(CC(O)C(O)CCC(O)CC(O)CC(O)CC(=O)O[C@H]1C)CC(O)C2C(=O)O (stereo partly drawn) [Nystatin, reference compound]
MIC against fungi, W. anomalus (W. anomalus DSM 6766): 8.3^e μg/mL
MIC against fungi, M. hiemalis (M. hiemalis DSM 2656; DSM 2656, – = no activity observed under test conditions): 8.3^e μg/mL
MIC against fungi, C. albicans (C. albicans DSM 1665; DSM 1665, – = no activity observed under test conditions): 8.3^e μg/mL
MIC against fungi, S. pombe (S. pombe DSM 70572; DSM 70572, – = no activity observed under test conditions): 4.2^e μg/mL
MIC against fungi, R. glutinis (R. glutinis DSM 10134): 4.2^e μg/mL

MIC [1]: 15.6 µg/mL
MIC in combination (MICc), Acp A and GM ([1]; combination of Acp A (3.9 μg/mL) with GM): 0.13 µg/mL
MIC (C. violaceum DSM 30191): 0.42 µg/mL (≈ 0.879 µM)
MIC (E. coli DSM 1116): 1.7 µg/mL (≈ 3.56 µM)
MIC (S. aureus DSM 346): 0.4 µg/mL (≈ 0.838 µM)
SMILES: CNC(C)C1CCC(N)C(OC2C(N)CC(N)C(OC3OCC(C)(O)C(NC)C3O)C2O)O1 (stereo not drawn) [Gentamicin]
increase of the potency of the antibiotic in combination with Acp A ([1]; Acp A 3.9 μg/mL, MIC alone versus in combination): up to 115 fold
FICI, Acp A and GM ([1]; FICI < 0.5: synergistic, value belongs to the combination): < 0.5
improvement in the inhibitory effects in combination with Acp A [2]: ~3 fold

MIC [1]: 31.3 µg/mL
decrease of the MIC value when combined with each antibiotic ([1]; combined with GM or Vac): ~10 fold
MIC (B. subtilis DSM 10; Bacillus subtilis, DSM10, DSM 10, – = no activity observed under test conditions): 66.7 µg/mL (≈ 181 µM)
MIC B. subtilis (B. subtilis DSM 10; [5]): 66,7
MIC (M. hiemalis DSM 2656; Mucor hiemalis, DSM2656, DSM 2656, – = no activity observed under test conditions): 66.7 µg/mL (≈ 181 µM)
MIC M. hiemalis (M. hiemalis DSM 2656; [5]): 66,7
MIC (S. aureus DSM 1104; Staphylococcus aureus, DSM1104, DSM 1104): 31.3 µg/mL (≈ 84.7 µM)
MIC S. aureus (S. aureus DSM 1104; supplement CSV, second S. aureus column (value matches DSM 1104 of Table 2), decimal comma, unit not given, in µg/mL): 31,3
MIC (S. aureus DSM 346): 66.7 µg/mL (≈ 181 µM)
MIC S. aureus (S. aureus DSM 346; supplement CSV, S. aureus, decimal comma, unit not given, in µg/mL): 66,7
MIC (C. albicans DSM 1665; Candida albicans, DSM1665, DSM 1665, – = no activity observed under test conditions): 66.7 µg/mL (≈ 181 µM)
MIC C. albicans (C. albicans DSM 1665; [5]): 66,7
MIC (S. pombe DSM 70572; Schizosaccharomyces pombe, DSM70572, DSM 70572, – = no activity observed under test conditions): 66.7 µg/mL (≈ 181 µM)
MIC S. pombe (S. pombe DSM 70572; [5]): 66,7
SMILES: CC(=O)[C@H](C)C[C@@H](C)C[C@H](C)C(=O)C1=C(O)/C(=C/c2ccccc2)NC1=O [Acp A, Arcopilin A]
lowest concentration with significant reduction in metabolic activity [3]: 3.9 µg/mL
efficacy toward preformed biofilms ([4]; at 3.9 μg/mL): 35–45%
efficacy toward preformed biofilms ([4]; concentration range 15.6 to 250 μg/mL): 50–60%
disrupting effect on preformed biofilms (in words) ([4]; tested 250–2 μg/mL): most promising disrupting effects; also recorded: remarkable effectiveness
IC50 (L929 (ACC 2)): 14 µg/mL (≈ 37.9 µM)
IC50 (KB-3-1 (ACC 158)): 8.9 µg/mL (≈ 24.1 µM)

— PMC11403616, “Arcopilins: A New Family of Staphylococcus aureus Biofilm Disruptors from the Soil Fungus Arcopilus navicularis” (Journal of Medicinal Chemistry, 2024)
